Our source for the Ki values is ChEMBL document CHEMBL2321847, “Ligand-based discovery of N-(1,3-dioxo-1H,3H-benzo[de]isochromen-5-yl)-carboxamide and sulfonamide derivatives as thymidylate synthase A inhibitors” (Bioorg Med Chem Lett, 2013).

Structures are written as SMILES. A value given as a limit tells only on which side of the number the result lay.

The target in assay [1] is T1, Dihydrofolate reductase (Homo sapiens, UniProt P00374).
T1 sequence (P00374 whole entry): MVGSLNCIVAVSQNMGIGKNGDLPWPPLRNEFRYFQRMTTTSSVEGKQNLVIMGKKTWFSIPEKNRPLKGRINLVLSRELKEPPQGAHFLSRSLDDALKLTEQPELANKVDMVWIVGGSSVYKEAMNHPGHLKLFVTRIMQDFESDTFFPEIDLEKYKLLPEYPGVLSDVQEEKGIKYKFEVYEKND
Kind of assay: Inhibition of human DHFR.

Assay [2] deals with Thymidylate synthase (Escherichia coli K-12, UniProt P0A884). Kind of assay: Inhibition of Escherichia coli thymidylate synthase A.
Sequence of Thymidylate synthase (Escherichia coli K-12, UniProt P0A884) (P0A884 whole entry): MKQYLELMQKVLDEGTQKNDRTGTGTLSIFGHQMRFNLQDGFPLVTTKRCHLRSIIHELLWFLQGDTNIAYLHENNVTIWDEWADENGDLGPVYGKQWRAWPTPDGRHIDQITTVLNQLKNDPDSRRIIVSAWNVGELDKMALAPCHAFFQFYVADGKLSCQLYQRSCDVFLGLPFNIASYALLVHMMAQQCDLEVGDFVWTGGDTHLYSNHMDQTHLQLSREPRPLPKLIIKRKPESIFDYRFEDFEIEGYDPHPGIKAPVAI
Assay [3] concerns the target Thymidylate synthase (Homo sapiens, UniProt P04818).
Description: Inhibition of human thymidylate synthase A

Sequence of Thymidylate synthase (Homo sapiens, UniProt P04818) (P04818 whole entry): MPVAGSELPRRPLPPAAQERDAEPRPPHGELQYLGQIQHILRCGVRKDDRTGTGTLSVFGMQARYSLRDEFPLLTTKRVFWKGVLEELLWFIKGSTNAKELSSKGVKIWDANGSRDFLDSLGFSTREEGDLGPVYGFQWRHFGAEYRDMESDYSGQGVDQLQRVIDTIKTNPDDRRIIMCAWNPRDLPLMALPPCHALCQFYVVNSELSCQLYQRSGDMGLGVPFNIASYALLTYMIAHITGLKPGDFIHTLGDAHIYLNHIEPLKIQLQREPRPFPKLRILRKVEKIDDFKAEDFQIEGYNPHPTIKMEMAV

For orientation: Ki means the dissociation constant of the complex between target and ligand, obtained from inhibition or displacement. Lower therefore signals tighter binding. Consider `O=C(Nc1cc2c3c(cccc3c1)C(=O)OC2=O)c1cccc([N+](=O)[O-])c1`, for which the Ki in assay [1] was > 110 µM; in assay [2], 7.3 µM.

In assay [2], `O=C(O)c1ccc2c3c(cccc13)C(=O)OC2=O` yielded a Ki of 26.8 µM.

Consider `Cc1onc(-c2ccccc2Cl)c1C(=O)Nc1cc2c3c(cccc3c1)C(=O)OC2=O`, for which the Ki in assay [3] was > 826 µM; in assay [2], 44.7 µM.

Regarding `Nc1ccc2c3c(cccc13)C(=O)OC2=O`, the Ki is > 160 µM in assay [3] and > 152 µM in assay [2].

For the compound `O=C1OC(=O)c2cc(NS(=O)(=O)c3cccc4nsnc34)cc3cccc1c23`, the Ki in assay [2] came to 0.9 µM.

On to `O=C(Nc1cc2c3c(cccc3c1)C(=O)OC2=O)c1ccc(Cl)c([N+](=O)[O-])c1`, for which the Ki in assay [2] is 4 µM.

The compound `O=C(Nc1cc2c3c(cccc3c1)C(=O)OC2=O)c1ccc([N+](=O)[O-])cc1` registered a Ki in assay [2] of 17 µM.

Turning to `O=C1/C(=N/c2ccccc2)c2cccc3cccc1c23`, the Ki in assay [3] was > 309 µM; in assay [2] it was > 294 µM.

In assay [2], `O=C1OC(=O)c2cc(NS(=O)(=O)c3ccc([N+](=O)[O-])cc3)cc3cccc1c23` gave a Ki of 1.2 µM.

With `O=C1OC(=O)c2cc(NS(=O)(=O)c3cccs3)cc3cccc1c23`, in assay [2], affinity was put at a Ki of 2.2 µM.

Take `O=C1Sc2cccc3cccc1c23`: the Ki is 3.1 µM in assay [3] and > 196 µM in assay [2].

Consider `N#CC(C#N)=c1c(=O)c2cccc3cccc1c32`, for which the Ki in assay [3] was > 309 µM; in assay [2], > 294 µM.

In assay [2], `O=C1OC(=O)c2cc(NS(=O)(=O)c3cccc4cccnc34)cc3cccc1c23` had a Ki of 2.9 µM.

`Nc1cc2c3c(cccc3c1)C(=O)OC2=O`: the values for the Ki in assay [3] and in assay [2] were > 412 µM and 6.8 µM, respectively.

The compound `O=C1OC(=O)c2cc(NS(=O)(=O)c3ccc(S(=O)(=O)c4ccccc4)s3)cc3cccc1c23` showed a Ki in assay [2] of 1.2 µM.

In assay [2], `O=C1OC(=O)c2cc(NS(=O)(=O)c3cccc([N+](=O)[O-])c3)cc3cccc1c23` showed a Ki of 2.1 µM.

In the case of `CC1(C)C(=O)c2cccc3cccc(c23)C1=O`, the Ki was 33 µM in assay [3] and > 588 µM in assay [2].

As to `O=C(/C=C/c1cccc(C(F)(F)F)c1)Nc1cc2c3c(cccc3c1)C(=O)OC2=O`, the Ki in assay [3] is > 206 µM; in assay [2] it was 10.6 µM.

Consider `O=C(Nc1cc2c3c(cccc3c1)C(=O)OC2=O)c1sc2ccccc2c1Cl`, for which the Ki in assay [3] was > 411 µM; in assay [1], > 55 µM; in assay [2] it was 6.5 µM.

As for `O=C1OC(=O)c2cc(NS(=O)(=O)c3cc(Cl)sc3Cl)cc3cccc1c23`, the Ki in assay [2] amounted to 4.6 µM.

As for `O=C1OC(=O)c2cc(NS(=O)(=O)/C=C/c3ccccc3)cc3cccc1c23`, in assay [2], the Ki was 0.3 µM.

In the case of `O=C1OC(=O)c2cc(NS(=O)(=O)c3ccc(C(F)(F)F)cc3[N+](=O)[O-])cc3cccc1c23`, the inhibition constant Ki in assay [2] was found to be 1.3 µM.

As for `CCOC(=O)CSc1ccc2c3c(cccc13)C(=O)OC2=O`, the Ki in assay [2] was > 588 µM.

As to `Cn1cc(-c2ccc(S(=O)(=O)Nc3cc4c5c(cccc5c3)C(=O)OC4=O)s2)cc1C(F)(F)F`, in assay [2], the Ki is 1.9 µM.

On to `O=C1C(=O)c2ccc(Oc3ccc([N+](=O)[O-])cc3)c3cccc1c23`, for which the Ki in assay [3] is > 98 µM; in assay [2] it was > 103 µM.

Take `O=C(Nc1cc2c3c(cccc3c1)C(=O)OC2=O)c1cccc(C(F)(F)F)c1`: in assay [2], affinity was put at a Ki of 4.4 µM.

As for `O=C(Cc1cccs1)Nc1cc2c3c(cccc3c1)C(=O)OC2=O`, in assay [2], affinity was put at a Ki of 5.3 µM.

In the case of `Cc1onc(-c2c(F)cccc2Cl)c1C(=O)Nc1cc2c3c(cccc3c1)C(=O)OC2=O`, the values for the Ki in assay [1] and in assay [2] were > 332 µM and 6.1 µM, respectively.

On to `O=C1OC(c2ccccc2)(c2ccccc2)c2cccc3cccc1c23`, for which the Ki in assay [3] is > 309 µM; in assay [2], > 294 µM.

Turning to `O=C1OCc2cccc3cccc1c23`, the Ki in assay [3] is 47 µM; in assay [2], > 304 µM.

The compound `O=C1OC(=O)c2ccc(Cl)c3cccc1c23` yielded a Ki in assay [2] of 105 µM.

`O=C1OC(=O)c2cccc3cccc1c23` [1,8-NAPHTHALIC ANHYDRIDE]: the Ki in assay [2] was > 294 µM.

For the compound `O=C(/C=C/c1ccccc1Cl)Nc1cc2c3c(cccc3c1)C(=O)OC2=O`, the values for the Ki in assay [3] and in assay [2] were > 616 µM and 32.3 µM, respectively.

For `O=C1OC(=O)c2cc(NS(=O)(=O)c3cccc4ccccc34)cc3cccc1c23`, the affinity in assay [2], expressed as Ki, was 1.1 µM.

On to `O=C1Oc2cccc3cccc1c23`, for which the Ki in assay [3] is 4.2 µM; in assay [2], > 265 µM.

Consider `O=C1OC(=O)c2ccc(SCCO)c3cccc1c23`, for which the results for the Ki in assay [3] and in assay [2] were > 474 µM and > 451 µM, respectively.

For the compound `O=C(Nc1cc2c3c(cccc3c1)C(=O)OC2=O)c1ccc([N+](=O)[O-])o1`, in assay [2], the Ki came to 6.7 µM.

On to `Nc1ccc(C(=O)Nc2cc3c4c(cccc4c2)C(=O)OC3=O)cc1`, for which the figures for the Ki in assay [3] and in assay [2] were > 823 µM and 21.6 µM, respectively.

For the compound `Cc1ccc2c3c(cccc13)C(=O)CC2`, the Ki in assay [3] was 3.1 µM; in assay [2], > 294 µM.

Take `O=C(Nc1cc2c3c(cccc3c1)C(=O)OC2=O)c1ccc(C(F)(F)F)cc1`: the Ki was > 206 µM in assay [3] and 6.4 µM in assay [2].

`O=C1OC(=O)c2cc(NS(=O)(=O)c3ccccc3)cc3cccc1c23`: the affinity in assay [2] corresponds to a Ki of 4.2 µM.

`O=C1OC(=O)c2cc([N+](=O)[O-])cc3cccc1c23`: the results for the Ki in assay [3] and in assay [2] were > 206 µM and > 196 µM, respectively.

`COC(=O)CCC(=O)Nc1cc2c3c(cccc3c1)C(=O)OC2=O` came in with a Ki in assay [2] of 7.1 µM.

On to `O=C(Nc1cc2c3c(cccc3c1)C(=O)OC2=O)c1ccc2c(c1)OCO2`, for which, in assay [2], the Ki is 7.4 µM.

In the case of `O=C1OC(=O)c2ccc(S(=O)(=O)O)c3cccc1c23`, the Ki is > 824 µM in assay [3] and > 784 µM in assay [2].
